target: Rv1026/PPX2 (6×His-Rv1026) (Mycobacterium tuberculosis, UniProt P96374)
Sequence (P96374 whole entry): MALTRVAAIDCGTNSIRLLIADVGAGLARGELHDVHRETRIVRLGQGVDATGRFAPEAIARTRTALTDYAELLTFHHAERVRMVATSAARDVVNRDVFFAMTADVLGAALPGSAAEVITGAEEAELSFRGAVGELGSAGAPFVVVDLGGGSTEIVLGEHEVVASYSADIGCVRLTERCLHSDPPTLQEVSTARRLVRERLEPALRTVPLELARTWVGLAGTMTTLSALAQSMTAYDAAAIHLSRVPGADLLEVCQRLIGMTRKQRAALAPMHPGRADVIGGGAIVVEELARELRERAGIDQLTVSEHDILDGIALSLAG

| SMILES | DAPI-based poly(P) hydrolysis assay |
| --- | --- |
| Nc1ncnc2c1ncn2[C@@H]1O[C@H](COP(=O)(O)OP(=O)(O)O)[C@@H](O)[C@H]1O [ADP] | accelerated when recombinant protein was incubated with AMP/ADP and GMP/GDP |
| Nc1nc2c(ncn2[C@@H]2O[C@H](COP(=O)(O)OP(=O)(O)O)[C@@H](O)[C@H]2O)c(=O)[nH]1 [GDP] | accelerated when recombinant protein was incubated with AMP/ADP and GMP/GDP |
| Nc1ncnc2c1ncn2[C@@H]1O[C@H](COP(=O)(O)O)[C@@H](O)[C@H]1O [AMP] | accelerated when recombinant protein was incubated with AMP/ADP and GMP/GDP |
| Nc1nc2c(ncn2[C@@H]2O[C@H](COP(=O)(O)O)[C@@H](O)[C@H]2O)c(=O)[nH]1 [GMP] | accelerated when recombinant protein was incubated with AMP/ADP and GMP/GDP |
